Common to all, as to test: growth of human tumour cells (NCI), 48 h
Test [1] concerns CCRF-CEM leukemia.
Test [2] concerns COLO 205 colon.
The subject of test [3] is EKVX NSCLC.
Test [4] deals with HL-60(TB) leukemia.
Test [5] deals with HOP-92 NSCLC.
Test [6] has as its system HS 578T breast.
Test [7] has as its system MCF7 breast.
The subject of test [8] is NCI-H23 lung.
Test [9] deals with NCI/ADR-RES ovarian.
Test [10] concerns SF-295 CNS.

Each structure is given as a SMILES string. “And” between values parts separate entries of the source, which are not always exact repeats. Equal entries are not always repeated.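 Test compounds were applied to cells in 96-well plates for 48 hours at 5 doses. GI50 = concentration required for 50% inhibition of growth. Definition used: TGI = concentration required for complete inhibition of growth.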

On to `COC(=O)[C@H]1C(=O)[C@@]2(C)[C@H]([C@H](OC(=O)c3ccccc3)[C@]3(O)C[C@H](OC(=O)[C@H](O)[C@@H](NC(=O)c4ccc(F)cc4)c4ccccc4)C(C)=C1C3(C)C)[C@]1(OC(C)=O)CO[C@@H]1C[C@@H]2O`, for which the GI50 in test [1] is 6.85 nM; in test [2], 7.09 nM; in test [3] it was 18.1 nM; in test [4] it was 6.14 nM; in test [6] it was 3.63 nM; in [7], 3.54 nM. In addition, the GI50 in test [8] is 20.2 nM; in [9] it was 4.61 µM; in test [10], 9.19 nM. Also, the TGI in [1] was above 8.69 µM; in test [2] it was 0.0565 µM; in test [3] it was above 25 µM; in [4], 0.0184 µM; in [5], above 14.5 µM; in test [6], 0.0231 µM. For the same molecule, the TGI was above 25 µM in [7], above 25 µM in test [8], above 25 µM in test [9] and 0.0639 µM in test [10].

For the molecule `CN1CCC(CNc2ccc3ncc(-c4cccc(OC(F)(F)F)c4)n3n2)CC1`, the GI50 in test [1] is 3360 nM and 2030 nM; in test [2], 1590 nM and 1470 nM; in test [3], 3450 nM and 9780 nM; in test [4] it was 1540 nM and 1000 nM; in test [5], 1200 nM and 383 nM; in test [6] it was 1660 nM and 1630 nM. The GI50 in test [7] was 1610 nM and 1810 nM; in test [8] it was 2470 nM and 3960 nM; in [9], 2.84 µM and 5.26 µM; in [10], 1670 nM and 1550 nM. For the same molecule, the TGI was 15.9 µM and 5.78 µM in test [1]; 3.07 µM and 3.08 µM in [2]; 14.5 µM and > 10 µM in test [3]; 3.79 µM and 2.89 µM in [4]; 3.81 µM and 3.66 µM in test [5]; 4.5 µM and 7.17 µM in test [6]. Moreover, the TGI in test [7] was 3.25 µM and 5.46 µM; in test [8], 9.48 µM and > 10 µM; in test [9] it was 10.5 µM and > 10 µM; in test [10], 3.48 µM and 3.87 µM.

Regarding `CCCCCCCCCCCCNC(=O)[C@H]1CSC(c2cc3ccccc3s2)N1` (some centres not stated), the GI50 is 725 nM in test [1]; 6460 nM in test [2]; 951 nM in test [3]; 154 nM in [4]; 5410 nM in test [5]; 777 nM in [6]. Moreover, the GI50 in test [7] is 4020 nM; in [8], 1920 nM; in [9] it was 1.66 µM; in test [10], 3520 nM. Besides, the TGI is 1.68 µM in test [1]; 12.3 µM in test [2]; 2.69 µM in [3]; 8.69 µM in test [4]; 10.5 µM in test [5]; 1.86 µM in test [6]. Further, the TGI in test [7] came to 9.15 µM; in test [8] it was 7.19 µM; in [9] it was 6.83 µM; in test [10], 8.33 µM.

In the case of `COC(=O)[C@H]1[C@@H](O)[C@@]2(O)c3c(OC)cc(O[C@@H]4O[C@@H]([C@H](O)CO)CO[C@H]4OC)cc3O[C@@]2(c2ccc(OC)cc2)[C@@H]1c1ccccc1`, the GI50 in [1] is 5.45 nM; in test [2] it was 3.09 nM; in test [3], 6.59 nM; in [4], 3.27 nM; in test [5], 3.25 nM; in test [6], 5.96 nM. Also, the GI50 in [7] is 3.12 nM; in test [8], 4.41 nM; in test [10] it was 12.7 nM. For the same molecule, the TGI came to 0.125 µM in test [1]; 0.00989 µM in test [2]; 0.105 µM in [3]; 0.0185 µM in test [4]; 0.0151 µM in test [5]; 0.0806 µM in test [6]. Besides, the TGI was 0.033 µM in test [7], 0.0422 µM in test [8], above 1 µM in test [9] and 0.0471 µM in test [10].

`COc1ccccc1-c1cc(/C=C2\C(=O)Nc3ncc(Br)cc32)cc(Br)c1O`: the GI50 in test [1] is 9760 nM; in test [2] it was 20200 nM; in test [3], 11200 nM; in test [4], 7470 nM; in [5] it was 1210 nM; in test [6], 7670 nM. Besides, the GI50 is 8050 nM in test [7], 10500 nM in [8], 14.5 µM in [9] and 10500 nM in test [10]. In addition, the TGI in test [1] was above 25 µM; in test [2], above 25 µM; in [3] it was above 25 µM; in [4] it was 23.7 µM; in test [5], above 25 µM; in [6], above 25 µM. The TGI in test [7], in test [8], in [9] and in test [10] was above 25 µM in each case.

As for `C/C1=C/C(=O)O[C@@H]2C[C@@H](CC[C@H](C)/C=C\C=C\CC1)O[C@@](O)([C@@H]1CSC(=O)N1CO)C2`, the GI50 in test [1] was 87.2 nM; in test [2], 37.4 nM; in test [3], 144 nM; in test [4], 253 nM; in [5] it was 16.5 nM; in test [6] it was 17.4 nM. Also, the GI50 in test [7] is 13100 nM; in test [8], 151 nM; in test [9], 1.2 µM; in [10], 41.4 nM. The TGI was above 41.4 µM in [1]; 0.146 µM in [2]; above 100 µM in test [3]; 18.8 µM in [4]; 0.0614 µM in test [5]; 0.0606 µM in [6]. Besides, the TGI in test [7] turned out to be 37.7 µM; in [8] it was 30.4 µM; in test [9], 46.1 µM; in [10] it was 20.5 µM.

With `CNC(=O)c1c(NC(=O)c2ccc(C(F)(F)F)cc2)sc2c1CCC(=O)C2`, the GI50 was 155 nM in test [1]; 603 nM in test [2]; 890 nM in test [3]; 363 nM in test [4]; 256 nM in [5]; 774 nM in test [6]. For the same molecule, the GI50 in [7] was 837 nM; in test [8], 418 nM; in test [9], 0.662 µM; in [10], 821 nM. Besides, the TGI in [2] worked out at 3.1 µM; in test [3], 6.05 µM; in [4], 2.09 µM; in test [5], 2.15 µM; in test [6], 13.2 µM; in [7], 4.13 µM. Moreover, the TGI came out at 5.9 µM in test [8], 3.74 µM in test [9] and 2.97 µM in test [10].

As to `C=C(C)[C@@H]1CC[C@]2(C(N)=O)CC[C@]3(C)[C@H](CC[C@@H]4[C@@]5(C)CC[C@H](O)C(C)(C)[C@@H]5CC[C@]43C)[C@@H]12`, the GI50 in [1] is 4490 nM; in test [2], 3630 nM; in test [3], 2960 nM; in [4], 3590 nM; in [5], 2690 nM; in [6], 5740 nM. Also, the GI50 was 2910 nM in test [7], 2260 nM in test [8], 3.17 µM in test [9] and 3390 nM in [10]. In addition, the TGI is above 100 µM in test [1]; 15 µM in test [2]; 18.2 µM in test [3]; 17.5 µM in [4]; 8.86 µM in [5]; above 100 µM in [6]. For the same molecule, the TGI was 11.2 µM in test [7], 5.21 µM in [8], 12.5 µM in [9] and 24.8 µM in test [10].

The record behind these values is PubChem BioAssay (NCI).
